Data reported in patent publication US20040038855A1 (priority 1999, published 2004).
Structures can show the parent of a compound that is named as a salt. Where two headings read alike, the source gives them in different places.

How the values were obtained:
human α2A adrenoceptor = target: T1, human α2A adrenoceptor (Homo sapiens, UniProt P08913); experiment: Binding affinity at the human α2A adrenergic receptor
T1 construct: expressed in transfected cells
T1 sequence (P08913 1-465): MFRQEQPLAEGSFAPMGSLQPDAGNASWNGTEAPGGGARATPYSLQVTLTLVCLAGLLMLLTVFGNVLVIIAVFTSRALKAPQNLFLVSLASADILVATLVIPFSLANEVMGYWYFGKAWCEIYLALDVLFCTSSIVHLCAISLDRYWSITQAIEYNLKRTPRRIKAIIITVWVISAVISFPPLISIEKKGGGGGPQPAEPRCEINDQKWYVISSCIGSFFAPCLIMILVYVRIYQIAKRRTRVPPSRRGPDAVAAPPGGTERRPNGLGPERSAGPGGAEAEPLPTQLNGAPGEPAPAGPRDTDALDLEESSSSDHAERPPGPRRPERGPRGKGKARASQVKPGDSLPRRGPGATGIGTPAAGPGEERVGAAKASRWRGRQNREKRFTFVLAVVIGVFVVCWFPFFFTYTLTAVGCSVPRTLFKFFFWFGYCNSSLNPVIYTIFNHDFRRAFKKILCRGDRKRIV
Description: Other receptors: Cell membranes expressing human dopamine D1, D2, D4 and rat D3 receptors were purchased through BioSignal, Inc. (Montreal, Canada). Binding assays using the histamine H1 receptor; dopamine receptors; and α1A, α1B, and α2 adrenergic receptors may be carried out according to the procedures described in U.S. Pat. No. 5,780,485, the disclosure of which is hereby incorporated by reference in its entirety into this application. Binding assays using the dopamine D5 receptor may be carried out according to the procedures described in U.S. Pat. No. 5,882,855, the disclosure of which is hereby incorporated by reference in its entirety into this application. Binding assays for the human α1D adrenergic receptor may be carried out according to the procedures described in U.S. Pat. No. 6,156,518, the disclosure of which is hereby incorporated by reference in its entirety into this application.

human GALR3 receptor = target: T2, human GALR3 receptor (Homo sapiens, UniProt O60755); experiment: Binding affinity at the human GALR3 receptor
T2 construct: expressed in transfected cells
T2 sequence (O60755 1-368): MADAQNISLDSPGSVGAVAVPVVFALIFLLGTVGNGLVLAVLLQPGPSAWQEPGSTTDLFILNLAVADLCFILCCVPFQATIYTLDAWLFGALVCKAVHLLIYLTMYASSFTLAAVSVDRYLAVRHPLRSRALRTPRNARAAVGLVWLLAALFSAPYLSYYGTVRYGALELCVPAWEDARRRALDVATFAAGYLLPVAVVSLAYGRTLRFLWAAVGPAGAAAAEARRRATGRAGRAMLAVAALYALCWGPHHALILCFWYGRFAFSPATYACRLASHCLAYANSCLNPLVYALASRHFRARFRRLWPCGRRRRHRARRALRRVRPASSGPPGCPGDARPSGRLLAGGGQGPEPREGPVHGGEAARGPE

human MCH1 receptor = human MCH1 receptor (Homo sapiens, UniProt Q99705); experiment: Competition binding, membrane preparations of A293 cells expressing the human MCH1 receptor, [3H] Compound 10 as radioligand; design: expressed in transfected cells
Chain of human MCH1 receptor (Q99705 whole entry): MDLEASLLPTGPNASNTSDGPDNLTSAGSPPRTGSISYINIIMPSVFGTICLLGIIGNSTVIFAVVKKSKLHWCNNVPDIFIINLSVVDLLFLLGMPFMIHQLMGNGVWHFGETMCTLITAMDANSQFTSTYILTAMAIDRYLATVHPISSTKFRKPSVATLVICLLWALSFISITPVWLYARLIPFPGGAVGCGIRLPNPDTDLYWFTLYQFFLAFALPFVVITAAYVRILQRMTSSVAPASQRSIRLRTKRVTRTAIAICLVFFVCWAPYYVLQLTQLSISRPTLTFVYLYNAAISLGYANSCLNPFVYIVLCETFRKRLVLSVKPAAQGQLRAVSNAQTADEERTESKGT
Procedure: TRITIATED METHYL (4S)-3-{[(3-{4-[3-(ACETYLAMINO)PHENYL]-1-[…]}PROPYL)AMINO]CARBONYL}-4-(3,4-DIFLUOROPHENYL)-6-(METHOXYMETHYL)-2-OXO-1,2,3,4-TETRAHYDRO-5-PYRIMIDINECARBOXYLATE ([^3H] COMPOUND 10): This radiochemical synthesis was carried out by Amersham Pharmacia Biotech, Cardiff, Wales. A methanolic solution of methyl (4S)-3-({[3-(4-[3-(acetylamino)phenyl]-3,6-dihydro-1(2H)pyridinyl)propyl]amino}carbonyl)-4-(3,4-difluorophenyl)-6-(methoxymethyl)-2-oxo-1,2,3,4-tetrahydro-5-pyrimidinecarboxylate was exposed to tritium gas at 1 atmosphere pressure in the presence of 5% palladium on carbon with stirring overnight to give the tritiated methyl (4S)-3-{[(3-{4-[3-(acetylamino)phenyl]-1-piperidinyl}propyl)amino]carbonyl}-4-(3,4-difluorophenyl)-6-(methoxymethyl)-2-oxo-1,2,3,4-tetrahydro-5-pyrimidinecarboxylate ((+)-isomer) After purification by reverse phase HPLC (Hypersil ODS, 4.6×100 mm, methanol:H2O:Et3N 10:90:1 to 100:0:1 in 15 min at 1.0 mL/min, with radiochemical and UV detection), this product was used as a radioligand in the MCH1 binding assays. The same procedure was carried out with H2 gas in place of ^3H2 to afford the non-radioactive version of Compound 10.

human NPY1 receptor = target: T3, human NPY1 receptor (Homo sapiens, UniProt P25929); experiment: Binding affinity at the human NPY1 receptor
T3 construct: expressed in transfected cells
T3 sequence (P25929 1-384): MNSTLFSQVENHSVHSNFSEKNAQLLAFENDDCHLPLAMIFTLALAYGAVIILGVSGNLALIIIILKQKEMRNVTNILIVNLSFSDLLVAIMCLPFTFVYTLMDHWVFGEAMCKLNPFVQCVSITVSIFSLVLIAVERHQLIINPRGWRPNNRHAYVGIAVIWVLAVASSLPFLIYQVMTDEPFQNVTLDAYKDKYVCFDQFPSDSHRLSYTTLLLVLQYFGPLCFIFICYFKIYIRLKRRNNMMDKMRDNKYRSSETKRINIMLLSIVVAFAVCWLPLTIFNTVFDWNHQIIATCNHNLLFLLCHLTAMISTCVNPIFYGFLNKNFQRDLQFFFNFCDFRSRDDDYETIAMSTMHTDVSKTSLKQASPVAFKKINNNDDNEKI
Description: The design of such compounds can be optimized by determining their binding affinity at the recombinant MCH1, NPY1, NPY2, Gal1, Gal2, Gal3, and 5HT2C receptors. The methods to obtain the cDNA of the receptor, express said receptors in heterologous systems, and carry out assays to determine binding affinity are described in the following publications: human NPY1 (Larhammar et al., 1992), human NPY5 (U.S. Pat. No. 5,602,024, the disclosure of which is hereby incorporated by reference in its entirety into this application), human Gall (Habert-Ortoli et al., 1994), human Gal2 (Smith et al., 1997), human Gal3 (Smith et al., 1998), and rat 5HT2C (Julius et al., 1988). Additionally, the compounds would optimally not bind at the following receptors due to possible side effects: human H1 histamine and human H2 histamine receptors; human alpha-1A adrenergic, human alpha-1D adrenergic, human alpha-2A adrenergic, human alpha-2B adrenergic, and human alpha-2C adrenergic receptors; human dopamine D1, D2, D3, D4, and D5 receptors; the β-adrenoceptor; and the human 5HT1A, human 5HT1B, human 5HT1D, human 5HT1E, human 5HT1F, human 5HT2A, rat 5HT2C, human 5HT4, human 5HT6, and human 5HT7 receptors.

[1] = Table 3b, A293 cell membranes, [3H] Compound 10, read-out: hMCH1* Ki

| Compound | Ki (human GALR3 receptor; Table 3a, read-out: hGALR3 Ki) [µM] | Ki (human GALR3 receptor; Table 3b, read-out: hGALR3 Ki) [µM] | Ki (human MCH1 receptor; [1]) [nM] | Ki (human NPY1 receptor; Table 3a, read-out: hMPY1 Ki) [µM] | Ki (human NPY1 receptor; Table 3b, read-out: hNPY1 Ki) [µM] | Ki (human GALR3 receptor) [µM] | Ki (human GALR3 receptor; read-out: hGALR3 Ki, Table 3b) [µM] | Ki (human MCH1 receptor) [nM] | Ki (human NPY1 receptor) [µM] | further results |
| --- | --- | --- | --- | --- | --- | --- | --- | --- | --- | --- |
| 2-(3,4-DIFLUOROPHENYL)4,5-DIHYDROIMIDAZOLE-1-CARBOXYLIC ACID {3-[4-PHENYL-4-(4-BROMO-5-METHYLTHIOPNEN-2-YL)]-PROPYL}-AMIDE [Example 19] | > 50 | > 50 | 3 | > 50 | > 50 | – | – | – | – | Ki (human α2A adrenoceptor; Table 3d, read-out: hα2A Ki): 0.285 µM; Ki (human MCH1 receptor; Table 3e, read-out: hMCH1 Ki): 3 nM; Ki (human MCH1 receptor; Table 3d, read-out: hMCH1 Ki): 3 nM |
| COC(=O)C1=C(C)NC(=O)N(C(=O)NCCCN2CCC3(CC2)OCc2ccccc23)C1c1ccc2nonc2c1 (single isomer, unassigned) [Example 18, HYDROCHLORIDE] | – | – | – | – | – | > 50 | > 50 | 4 | > 50 | Ki (human α2A adrenoceptor): 0.057 µM; Ki (human NPY1 receptor; read-out: hNPY1 Ki, Table 3b): > 50 µM |
| CCC1=C(C(=O)O)C(c2ccc(F)c(F)c2)N(C(=O)NCCCN2CCC3(CC2)OCc2ccccc23)C(=O)N1 (single isomer, unassigned; (+)) [Example 4, (+)-1,2,3,6-TETRAHYDRO-1-1N-[4-(BENZO-4′,5′(H)FURAN)PIPERIDIN-1-YL]PROPYL}-CARBOXAMIDO-4-ETHYL-6-(3,4-DIFLUOROPHENYL)-2-OXO-PYRIMIDINE-5 CARBOXYLIC ACID HYDROCHLORIDE] | > 50 | > 50 | 131 | > 50 | > 50 | – | – | – | – | – |
| COCC1=C(C(=O)OC)C(c2ccc(F)c(F)c2)N(C(=O)NCCCN2CCC(c3cccc(NC(C)=O)c3)CC2)C(=O)N1 (single isomer, unassigned; (-)) [Example 1, (−)-1,2,3,6-TETRAHYDRO-1-{N-[4-(3,-ACETAMIDO)-PHENYLPIPERIDIN-1-YL]PROPYL}CARBOXAMIDO-4-METHOXYMETHYL-6-(3,4-DIFLUORO-PHENYL)-2-OXOPYRIMIDINE-5-CARBOXYLIC ACID METHYL ESTER] | > 50 | > 50 | 40 | > 50 | > 50 | – | – | – | – | – |
| CCCCN(CCCC)c1ccc(CN2CCC(CNC(=O)N3C(=O)NC(C)=C(C(=O)OC)C3c3ccc4nonc4c3)CC2)cc1 (stereo not shown) [Example 6] | 21.1 | 21.1 | 463 | 6.67 | 6.67 | – | – | – | – | – |
| COCC1=C(C(=O)OC)[C@H](c2ccc(F)c(F)c2)N(C(=O)NCCCN2CCC(c3cccc(NC(C)=O)c3)CC2)C(=O)N1 [Example 10, (+)-1,2,3,6-TETRAHYDRO-1-{N-[4-(3,-ACETAMIDO)-PHENYLPIPERIDIN-1-YL]PROPYL}CARBOXAMIDO-4-METHOXYMETHYL-6-(3,4-DIFLUORO-PHENYL)-2-OXOPYRIMIDINE-5-CARBOXYLIC ACID METHYL ESTER] | > 50 | > 50 | 0.08 | > 50 | > 50 | – | – | – | – | – |
| CCCCN(CCCC)c1ccc(CNC[C@H]2CC[C@H](NC(=O)c3cccc4ccccc34)CC2)cc1 [Example 13, N1-[4-([4-(DIBUTYLAMINO)BENZYL]AMINOMETHYL)CYCLOHEXYL]-1-NAPHTH-AMIDE] | 5.98 | 5.98 | 171 | 9.6 | 9.6 | – | – | – | – | – |
| COC(=O)C1=C(C)NC(=O)N(C(=O)NCCCN2CCC3(CC2)OCc2ccccc23)C1c1ccc(F)c(F)c1 (stereo not shown) [Example 20, 4-(3,4-DIFLUORPHENYL)-6-METHYL-2-OXO-3-{[3-(4-SPIRO[ISOBENZOFURAN-1(3H),4′-PIPERIDINE]PROPYL}-1,2,3,4-TETRAHYDROPYRIMIDINE-5-CARBOXYLIC ACID METHYL ESTER] | – | – | – | – | – | > 50 | > 50 | 6 | 27.1 | Ki (human α2A adrenoceptor): 0.099 µM; Ki (human MCH1 receptor; read-out: hMCH1 Ki, Table 3e): 6 nM; Ki (human MCH1 receptor; read-out: hMCH1 Ki, Table 3d): 6 nM; Ki (human NPY1 receptor; read-out: hMPY1 Ki, Table 3a): 27.1 µM |
| O=C(CCCN1CCC(O)(c2ccc(Cl)cc2)CC1)c1ccc(Cl)cc1 [Example 29] | – | – | – | – | – | > 50 | > 50 | 350 | > 50 | Ki (human NPY1 receptor; read-out: hNPY1 Ki, Table 3b): > 50 µM |
